Some test systems named below: SK-OV-3 ovarian; NCI-H460 lung; OVCAR-8 ovarian; MALME-3M melanoma; A549 NSCLC; M14 melanoma; SNB-75 CNS; EKVX NSCLC; HCC-2998 colon; SNB-19 CNS.
Test in all cases: NCI anticancer screen, dose series, 48 h

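Dose response: 5 concentrations. Exposure: 48 h. Format: 96-well plates. Endpoint: linear interpolation; highest concentration if not reached. At the GI50, growth is halved. At the TGI there is no net growth.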 Bounds are passed on as bounds.

Turning to `CC1=Nc2ccccc2S/C1=C(/C)NNC(=O)C(N)=O`, the TGI in the assay with SK-OV-3 ovarian, with NCI-H460 lung, with OVCAR-8 ovarian, in the assay with MALME-3M melanoma, in the assay on A549 NSCLC and in the assay with M14 melanoma was more than 100 µM throughout. For the same compound, the TGI with SNB-75 CNS, in the assay on EKVX NSCLC, in the assay on HCC-2998 colon and with SNB-19 CNS was more than 100 µM in each case.

For `OC(c1cc(-c2ccccc2)nc2ccc(Cl)cc12)C1CCCCN1` (stereo unspecified), the GI50 in the assay on SK-OV-3 ovarian was 3.85 µM; in the assay on NCI-H460 lung it was 1.89 µM; in the assay with OVCAR-8 ovarian it was 2.55 µM; with MALME-3M melanoma, 1.99 µM; with A549 NSCLC it was 3.07 µM; with M14 melanoma it was 1.87 µM. For the same compound, the GI50 with SNB-75 CNS was 1.83 µM; in the assay on EKVX NSCLC, 2.36 µM; in the assay with HCC-2998 colon, 1.83 µM; in the assay with SNB-19 CNS, 1.99 µM. The TGI is 14.4 µM with SK-OV-3 ovarian; 3.61 µM with NCI-H460 lung; 6.38 µM with OVCAR-8 ovarian; 3.88 µM in the assay with MALME-3M melanoma; 8.21 µM in the assay with A549 NSCLC; 3.54 µM with M14 melanoma. Moreover, the TGI in the assay with SNB-75 CNS came to 5.74 µM; with EKVX NSCLC, 6.27 µM; in the assay on HCC-2998 colon it was 3.34 µM; with SNB-19 CNS, 4.2 µM.

Regarding `COc1ccc(/C(C#N)=C/c2ccccc2OC)cc1`, the GI50 was 19.4 µM in the assay with SK-OV-3 ovarian; 5.89 µM with NCI-H460 lung; 25.2 µM in the assay on OVCAR-8 ovarian; 17.1 µM with MALME-3M melanoma; 6.19 µM in the assay with A549 NSCLC; 4.8 µM in the assay with M14 melanoma. The GI50 is 4.07 µM with SNB-75 CNS, 41.1 µM in the assay on EKVX NSCLC, 14.5 µM with HCC-2998 colon and 30.3 µM in the assay on SNB-19 CNS. Also, the TGI was more than 100 µM in the assay with SK-OV-3 ovarian; more than 100 µM with NCI-H460 lung; more than 100 µM in the assay on OVCAR-8 ovarian; more than 100 µM in the assay with MALME-3M melanoma; more than 100 µM with A549 NSCLC; 60.9 µM in the assay with M14 melanoma. Also, the TGI was 32.8 µM with SNB-75 CNS, more than 100 µM with EKVX NSCLC, more than 100 µM with HCC-2998 colon and more than 100 µM with SNB-19 CNS.

On to `CN(C)CCCNC(CC#N)CCC#N` (stereo unspecified), for which the TGI in the assay with SK-OV-3 ovarian, in the assay with NCI-H460 lung, in the assay on OVCAR-8 ovarian, in the assay with MALME-3M melanoma, with A549 NSCLC and in the assay with M14 melanoma was more than 10 µM each time. The TGI in the assay on SNB-75 CNS, with EKVX NSCLC, with HCC-2998 colon and in the assay on SNB-19 CNS was more than 10 µM throughout.

Take `CC[C@@H](C(=O)O)C1CC[C@H](C)C([C@@H](C)[C@H](O)[C@H](C)C(=O)[C@H](CC)C2O[C@]3(C=C[C@@H](O)[C@]4(CC[C@@](C)(C5CC[C@](O)(CC)[C@H](C)O5)O4)O3)[C@H](C)C[C@@H]2C)O1` (stereo partly specified): the GI50 was 3.44 µM with SK-OV-3 ovarian; 0.383 µM with NCI-H460 lung; 1.21 µM in the assay on OVCAR-8 ovarian; 0.226 µM in the assay with MALME-3M melanoma; 0.282 µM with A549 NSCLC; 1.29 µM in the assay on M14 melanoma. For the same compound, the GI50 with SNB-75 CNS is 0.774 µM; in the assay with EKVX NSCLC, 0.523 µM; with HCC-2998 colon, 0.13 µM; in the assay on SNB-19 CNS, 0.323 µM. Also, the TGI in the assay with SK-OV-3 ovarian amounted to 31.8 µM; in the assay with NCI-H460 lung, 10.5 µM; with OVCAR-8 ovarian, 37.4 µM; in the assay with MALME-3M melanoma it was 1.37 µM; in the assay on A549 NSCLC it was 14.1 µM; in the assay with M14 melanoma, 2.82 µM. For the same compound, the TGI was 4.18 µM in the assay on SNB-75 CNS, 22.5 µM with EKVX NSCLC, 7.52 µM in the assay with HCC-2998 colon and 3.65 µM in the assay with SNB-19 CNS.

Take `CC1=C(C)C(=O)c2c(cc3ccccn23)C1=O`: the TGI in the assay with SK-OV-3 ovarian was found to be 63.6 µM; in the assay with NCI-H460 lung it was 31.5 µM; in the assay on OVCAR-8 ovarian, 61.1 µM; in the assay on MALME-3M melanoma, 17 µM; with A549 NSCLC, 43.1 µM; with M14 melanoma, 28.1 µM. The TGI is 43.1 µM with SNB-75 CNS, 46.4 µM in the assay with EKVX NSCLC, 29.9 µM with HCC-2998 colon and 28.6 µM in the assay on SNB-19 CNS.

`COc1cc(C(=O)C/C(CCCC(=O)Nc2ccccc2[N+](=O)[O-])=N/NC(=O)c2cc3ccccc3cc2O)ccc1O`: the TGI with SK-OV-3 ovarian is 95.7 µM; in the assay with NCI-H460 lung, more than 100 µM; in the assay with OVCAR-8 ovarian it was more than 100 µM; with MALME-3M melanoma it was more than 100 µM; with A549 NSCLC, more than 100 µM; in the assay with M14 melanoma, 50.2 µM. Also, the TGI in the assay on SNB-75 CNS is more than 100 µM; in the assay with EKVX NSCLC, more than 84.7 µM; in the assay with HCC-2998 colon, more than 76.2 µM; in the assay with SNB-19 CNS, more than 100 µM.

For `COc1cccc(-n2ncc3c(N/N=C/c4ccc(C(=O)NCCN(C)C)cc4)ncnc32)c1`, the GI50 in the assay on SK-OV-3 ovarian was 1.53 µM; with NCI-H460 lung, 3.23 µM; in the assay with OVCAR-8 ovarian, 4.19 µM; in the assay with MALME-3M melanoma, 3.43 µM; with A549 NSCLC, 3.33 µM; in the assay with M14 melanoma it was 1.8 µM. Further, the GI50 with SNB-75 CNS is 1.05 µM; with EKVX NSCLC it was 4.31 µM; in the assay on HCC-2998 colon, 4.66 µM; in the assay with SNB-19 CNS it was 5.07 µM. Further, the TGI came out at 4.68 µM in the assay on SK-OV-3 ovarian; 7.24 µM with NCI-H460 lung; 9.27 µM with OVCAR-8 ovarian; 7.81 µM with MALME-3M melanoma; 6.91 µM in the assay on A549 NSCLC; 5.55 µM in the assay with M14 melanoma. For the same compound, the TGI in the assay with SNB-75 CNS came out at 5.13 µM; with EKVX NSCLC, 8.57 µM; in the assay on HCC-2998 colon, 8.58 µM; with SNB-19 CNS, 9.75 µM.

Take `COc1cc(/C=C/c2cc(O)c3cc(C(C)=O)c(=O)oc3c2)cc2c1O[C@]1(C)CC[C@@H](O)C(C)(C)[C@H]1C2`: the GI50 in the assay with SK-OV-3 ovarian is more than 20.6 µM; in the assay with OVCAR-8 ovarian, more than 28.2 µM; with A549 NSCLC, more than 24.2 µM; in the assay on EKVX NSCLC, more than 32.5 µM; in the assay on HCC-2998 colon it was more than 28.2 µM; in the assay on SNB-19 CNS, more than 21.9 µM. The TGI in the assay on SK-OV-3 ovarian was more than 64 µM; in the assay on NCI-H460 lung, more than 53.2 µM; in the assay with OVCAR-8 ovarian, more than 95.1 µM; with MALME-3M melanoma, more than 33 µM; in the assay on A549 NSCLC it was more than 53.2 µM; in the assay on M14 melanoma it was more than 20.2 µM. The TGI was more than 48 µM with SNB-75 CNS, more than 64.1 µM in the assay with EKVX NSCLC, more than 48.7 µM in the assay on HCC-2998 colon and more than 95.4 µM with SNB-19 CNS.
